Test results as given in PMC9598531 (Biology, 2022).
Where two headings read alike, the source gives them in different places.

Legend:
[1] = target: T1, human KMO (Homo sapiens, UniProt O15229); experiment: KMO enzyme activity (inhibitor screening kit) assay; format: biochemical; design: purchased BPS Bioscience; details: for IC50: human KMO enzyme; for inhibition at 100 µM: read-out: % inhibition of KMO enzyme activity
Protocol: The enzymatic assay was performed in duplicate. Ro 61-8048 was used as the positive control. The test compounds were dissolved in DMSO at 100 mM and diluted to 1 mM in assay buffer. A reaction mixture of assay buffer (50 μL), human KMO (20 μg/mL; 50 μL), test compounds (1 mM; 10 μL), and substrate (40 μL NADPH (10 mM) plus L-Kyn (20 mM)) were incubated in a 96-well plate at room temperature for 1.5 h. The absorbance was recorded at 340 nm. The enzyme activity was expressed as % activity as follows: % Activity=[(Abssample−Absblank)/(Abscontrol−Absblank)]×100
% Inhibition was calculated by subtracting the % activity from 100%.

[2] = design: method as in PMID 21640374; details: cited from earlier work
[3] = target: T1, human KMO; experiment: Competitive SPR binding assay; details: for Experimental RU: CFA 75 μM, Ro 61-8048 5 μM, alone or combined
Protocol: HBS-P+ (20 mM; 0.02 M HEPES, 0.3 M NaCl, 0.1% v/v surfactant P20; pH 7.4) containing 3% DMSO was used as the running buffer. […] Ro 61-8048 was prepared as a final concentration of 5 μM in running buffer. […] FO(A)=1/1+KDA/CA(1+CB/KDB);FO(B)=1/1+KDB/CB(1+CA/KDA) where CA and CB are the respective concentrations of both binders, and KDA and KDB represent the equilibrium dissociation constants of the binders. The FO values were used to calculate the theoretical RU representative of competing compounds using the following equation [23]: Robserved=FO(A)·Rmax(A)+FO(B)·Rmax(B)

[4] = target: T1, human KMO; experiment: SPR binding assay (Biacore T200); design: purchased Cosmo Bio USA; details: for Kon: association rate; for Kd: dissociation constant
Protocol: The protein was manually immobilized on a Series S Sensor Chip CM5 based on an amine coupling method with minor modification. An SPR assay was conducted on the Biacore T200 SPR instrument (Cytiva; Marlborough, MA, USA). […] Ro 61-8048 stock solution (6 mM; dissolved in DMSO) was diluted into a series of concentrations ranging from 1.25 to 20 μM in the running buffer.

[5] = test system: KMO; design: method as in PMID 28464785; details: rat liver and kidney homogenates in vitro; cited from earlier work
[6] = test system: KMO; details: KMO inhibitor; cited from earlier work
[7] = target: T1, human KMO; experiment: KMO enzyme activity (inhibitor screening kit) assay; format: biochemical; design: purchased BPS Bioscience; details: read-out: % inhibition of KMO

T1 sequence (O15229 whole entry): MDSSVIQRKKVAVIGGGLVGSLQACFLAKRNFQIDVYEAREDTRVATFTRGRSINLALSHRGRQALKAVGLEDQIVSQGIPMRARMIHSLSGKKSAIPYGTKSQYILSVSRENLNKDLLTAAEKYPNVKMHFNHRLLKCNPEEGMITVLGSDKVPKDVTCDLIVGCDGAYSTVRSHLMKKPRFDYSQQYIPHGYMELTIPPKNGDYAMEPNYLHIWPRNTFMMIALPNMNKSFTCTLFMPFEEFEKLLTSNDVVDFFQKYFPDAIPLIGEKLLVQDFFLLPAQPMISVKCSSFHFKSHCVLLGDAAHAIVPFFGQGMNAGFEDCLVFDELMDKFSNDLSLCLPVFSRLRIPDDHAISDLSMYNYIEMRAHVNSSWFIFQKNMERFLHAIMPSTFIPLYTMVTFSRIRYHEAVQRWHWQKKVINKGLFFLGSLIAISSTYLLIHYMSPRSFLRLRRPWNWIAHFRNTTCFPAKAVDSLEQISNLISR

## CCCCCc1cc(O)c2c(c1)OC(C)(C)C1=C2C(O)C(C)(O)CC1 (stereo not drawn) [CBT, cannabitriol]
[1]; at 100 μM
  % inhibition of KMO enzyme activity: 11%

## COc1ccc(S(=O)(=O)Nc2nc(-c3cccc([N+](=O)[O-])c3)cs2)cc1OC [Ro 61-8048, 3,4-Dimethoxy-[-N-4-(Nitrophenyl)Thiazol-2YL]-Benzenesulfonamide, reference compound]
[2]
  crossing of the blood brain barrier: cannot cross the blood brain barrier
[3]
  Experimental RU: 19 RU
[4]; SPR
  Kon: 3.7 ×10^3, 1/Ms
  Kd: 11 µM
[4]; SPR, dissociation rate
  Koff: 38.5 ×10^−3, 1/s
[4]; at 1 μM
  binding response unit (RU): 1.48 RU
[4]; at 3 μM
  binding response unit (RU): 2.99 RU
[4]; at 10 μM
  binding response unit (RU): 13.4 RU
[4]; at 20 μM
  binding response unit (RU): 27.0 RU
[5]
  IC50: 0.037 µM
[1]
  IC50: 5.1 µM

## C=C(C)[C@@H]1CCC(C)=C[C@H]1c1c(O)cc(CCC)cc1O [CBDV, cannabidivarin]
[1]
  inhibition at 100 µM: 0%

## CCCCCc1cc(O)c2c(c1)OC(C)(CCC=C(C)C)C=C2 (stereo not drawn) [CBC, cannabichromene]
[1]
  inhibition at 100 µM: 0%

## CCCCCc1cc(O)c2c(c1)OC(C)(C)c1ccc(C)cc1-2 [CBN, cannabinol]
[1]
  inhibition at 100 µM: 0%

## CCCCCc1cc(O)c2c(c1)OC(C)(C)[C@@H]1CC=C(C)C[C@@H]21 [Δ^8 THC, delta-8-Tetrahydrocannabinol]
[1]
  inhibition at 100 µM: 1%

## O=C(O)[C@H]1C[C@@H]1C(=O)c1ccc(Cl)c(Cl)c1 [UPF-648]
[6]
  IC50: 0.04 µM

## CCCCCc1cc(O)c(C/C=C(\C)CCC=C(C)C)c(O)c1 [CBG, cannabigerol]
[1]
  inhibition at 100 µM: 1%

## CCCCCc1cc(O)c(C/C=C(\C)CCC=C(C)C)c(O)c1C(=O)O [CBGA, cannabigerolic acid]
[1]
  inhibition at 100 µM: 1%

## C=C(C)[C@@H]1CCC(C)=C[C@H]1c1c(O)cc(CCCCC)cc1O [CBD, cannabidiol, reference compound]
[1]
  inhibition at 100 µM: 6%

## NC(CC(=O)c1cccc([N+](=O)[O-])c1)C(=O)O (stereo not drawn)
[6]
  IC50: 0.9 µM

## COc1cc(-c2cc(=O)c3c(O)c(C/C=C(\C)CCC=C(C)C)c(O)cc3o2)ccc1O [CFA, cannflavin A]
[7]
  inhibition at 2.5 µM: 8.5%
  inhibition at 5 µM: 15%
  inhibition at 20 µM: 38%
  inhibition at 40 µM: 59%
[3]
  Experimental RU: 27 RU
[3]; competitive SPR analysis
  binding mode of CFA and Ro 61-8048 to the KMO protein: competitive, rather than non-competitive binding
[4]; SPR
  Kon: 0.3 ×10^3, 1/Ms
  Kd: 41 µM
[4]; SPR, dissociation rate
  Koff: 14.2 ×10^−3, 1/s
[4]; SPR, read-out: association rate
  kon: 300 M⁻¹ s⁻¹
[4]; SPR, read-out: dissociation rate
  Koff: 0.0142 s⁻¹
[4]; at 10 μM
  binding response unit (RU): 5.6 RU
[4]; at 19 μM
  binding response unit (RU): 10.4 RU
[4]; at 38 μM
  binding response unit (RU): 17.9 RU
[4]; at 150 μM
  binding response unit (RU): 35.7 RU
[4]; at 300 μM
  binding response unit (RU): 40.7 RU
[1]
  IC50: 29.4 µM
  inhibition at 100 µM: 99%
